In patent US20050266012A1 (priority 2004, published 2005):

Key:
[1] = tested on: relapsed or refractory acute myelogenous leukaemia (AML) and myolodysplastic syndrome (MDS); settings: cited from earlier work
latent EBV promoters = settings: patients with EBV-associated tumors; cited from earlier work
AT-2-HIV-pulsed DCs [2] = experiment: Ex vivo cytotoxic assay, HIV-specific cytolysis by splenocytes; assay type: in vivo; settings: AT-2-HIV-immunized BALB/c mice; 5 mg/kg daily intramuscular for 7 days; P<0.01
Experimental: (§1) Aldrithiol-2 (AT-2)-inactivated HIV (10^9/50 μl) (LU and ANDRIEU, J. Virol., vol. 75, p: 8949-56, 2001) or human chromogranin A (hCgA, a protein associated with neuro-endocrine tumours (DEGORCE et al., Br. J. Cancer., vol. 79, p: 65-71, 1999); 10 μg/50 μl) plus incomplete Freund's adjuvant (IFA) (50 μl) were injected subcutaneously into 4- to 6-week-old male BALB/c mice (Institute of Laboratory Animal Science, Beijing, China). Mice immunized with AT-2-inactivated HIV (n=12) or hCgA (n=12) were randomly divided into two subgroups. One subgroup (n=6) received daily intramuscular injection of 5-azacytidine (Sigma, St Louis, Mo.) at a dose of 5 mg/kg for 7 days and the other subgroup (n=6) received 0.9% sodium chloride as control. Animals were killed at day 7 for ex vivo analysis. […]
(§2) Splenocytes were taken from 7-day-immunized mice and plated into Micro Tubes-Bulk (Bio-Rad, Hercules, Calif.) in the presence of CFSE (Molecular Probes, PoortGebouw, The Netherlands)-labelled AT-2-HIV- or hCgA-pulsed dendritic cells (DCs) at different E:T ratios for 4 h at 37° C. […] Target cytolysis was analyzed on a FACSCalibur (BD Immunocytometry System, San Jose, Calif.). Virus- or tumour-specific cytolytic activity was determined by calculating the percentage of CFSE/PI-staining DCs after subtraction of the non-specific CFSE/PI-staining of non-pulsed DCs. […]

solid tumors = settings: phase II trials, variety of doses and schedules; cited from earlier work
hCgA-pulsed DCs [3] = experiment: Ex vivo cytotoxic assay, hCgA-specific cytolysis by splenocytes; assay type: in vivo; settings: hCgA-immunized BALB/c mice; 5 mg/kg daily intramuscular for 7 days; P<0.01
Experimental: as §1, §2

hCgA-pulsed DCs [4] = experiment: In vivo cytotoxic assay, hCgA-specific cytolysis; settings: hCgA-immunized BALB/c mice; 5 mg/kg daily intramuscular for 7 days; P<0.01
Experimental: (§3) Aldrithiol-2 (AT-2)-inactivated HIV (10^9/50 μl) (LU and ANDRIEU, J. Virol., vol. 75, p: 8949-56, 2001) or human chromogranin A (hCgA, a protein associated with neuro-endocrine tumours (DEGORCE et al., Br. J. Cancer., vol. 79, p: 65-71, 1999); 10 μg/50 μl) plus incomplete Freund's adjuvant (IFA) (50 μl) were injected subcutaneously into 4- to 6-week-old male BALB/c mice (Institute of Laboratory Animal Science, Beijing, China). Mice immunized with AT-2-inactivated HIV (n=12) or hCgA (n=12) were randomly divided into two subgroups. One subgroup (n=6) received daily intramuscular injection of 5-azacytidine (Sigma, St Louis, Mo.) at a dose of 5 mg/kg for 7 days and the other subgroup (n=6) received 0.9% sodium chloride as control. Animals were killed at day 7 for ex vivo analysis. In addition, non-immunized mice (n=6) injected with IFA alone were also killed on the same day to establish a background control.
(§4) This assay was performed as described previously (AICHELE et al., Immunity, vol. 6, p: 519-29, 1997). Briefly, target DCs were prepared from BALB/c bone marrow cell suspensions (LUTZ et al., above mentioned, 1999). […] In vivo HIV- or hCgA-specific cytolysis was assessed by calculating the ratio of non-pulsed DCs/pulsed DCs. […]

AT-2-HIV-pulsed DCs [5] = experiment: In vivo cytotoxic assay, HIV-specific cytolysis; settings: AT-2-HIV-immunized BALB/c mice; 5 mg/kg daily intramuscular for 7 days; P<0.01
Experimental: as §3, §4

[6] = tested on: P16 transcription from a methylation-silenced promoter; settings: prostate cancer cells that grow in nude mice; cited from earlier work

SMILES | Clinical activity as single agent [1] | CpG methylation of latent EBV promoters in tumor tissues (latent EBV promoters) | Increase of ex vivo HIV-specific cytolysis of AT-2-HIV-pulsed DCs by splenocytes vs untreated immunized animals (AT-2-HIV-pulsed DCs [2]) | Clinical results of single agent in solid tumors (solid tumors) | Increase of ex vivo hCgA-specific cytolysis of hCgA-pulsed DCs by splenocytes vs untreated immunized animals (hCgA-pulsed DCs [3]) | Increase of in vivo hCgA-specific cytolysis of hCgA-pulsed DCs vs untreated immunized animals (hCgA-pulsed DCs [4]) | Increase of in vivo HIV-specific cytolysis of AT-2-HIV-pulsed DCs vs untreated immunized animals (AT-2-HIV-pulsed DCs [5]) | P16 transcription from a methylation-silenced promoter [6]
Nc1ncn([C@@H]2O[C@H](CO)[C@@H](O)[C@H]2O)c(=O)n1 [5-Azacytidine] | limited activity | reversed the dense CpG methylation | > 2 fold | uniformly disappointing | > 2 fold | > 3 fold | > 3 fold | 
CCN(CC)CCNC(=O)c1ccc(N)cc1 [procanaimide] |  |  |  |  |  |  |  | reactivate the P16 transcription
